Experimental data published in patent publication US9062124B2, “GIP-based mixed agonists for treatment of metabolic disorders and obesity” (priority 2008, dated 2015).
Where a SMILES comes first, the peptide text is derived from it. Bridges are numbered along the chain shown (N, C = ends). Where no end group is shown, it is not given here. Side-chain parts run from the residue outwards. [ ]: non-standard residue; d: D form. The star is where a group is joined. Ac‑Cys(PEG 40 kDa) = Cys whose alpha-amino group is acetylated and whose side chain carries a 40 kDa PEG; Myristoyl = CCCCCCCCCCCCCC(=O)*; Aib = CC(C)(N)C(=O)O

Experiments:
Format in all cases: cell-based
[1] = target: T1, GLP-1 receptor (Homo sapiens, UniProt P43220); test: cAMP synthesis functional assay (firefly luciferase reporter in HEK293 cells), GLP-1 receptor; conditions: for EC50: GLP-1 Receptor EC50, cAMP luciferase reporter assay as in Example 16
T1 construct: expressed in transfected cells; host or cells: HEK293

[2] = target: T2, glucagon receptor (Homo sapiens, UniProt P47871); test: cAMP synthesis functional assay (firefly luciferase reporter in HEK293 cells), glucagon receptor; conditions: for EC50: Glucagon Receptor EC50, cAMP luciferase reporter assay as in Example 16
T2 construct: expressed in transfected cells; host or cells: HEK293

[3] = target: T3, GIP receptor (Homo sapiens, UniProt P48546); test: cAMP synthesis functional assay (firefly luciferase reporter in HEK293 cells), GIP receptor; conditions: for EC50: GIP Receptor EC50, cAMP luciferase reporter assay as in Example 16
T3 construct: expressed in transfected cells; host or cells: HEK293
T3 sequence (P48546 22-466): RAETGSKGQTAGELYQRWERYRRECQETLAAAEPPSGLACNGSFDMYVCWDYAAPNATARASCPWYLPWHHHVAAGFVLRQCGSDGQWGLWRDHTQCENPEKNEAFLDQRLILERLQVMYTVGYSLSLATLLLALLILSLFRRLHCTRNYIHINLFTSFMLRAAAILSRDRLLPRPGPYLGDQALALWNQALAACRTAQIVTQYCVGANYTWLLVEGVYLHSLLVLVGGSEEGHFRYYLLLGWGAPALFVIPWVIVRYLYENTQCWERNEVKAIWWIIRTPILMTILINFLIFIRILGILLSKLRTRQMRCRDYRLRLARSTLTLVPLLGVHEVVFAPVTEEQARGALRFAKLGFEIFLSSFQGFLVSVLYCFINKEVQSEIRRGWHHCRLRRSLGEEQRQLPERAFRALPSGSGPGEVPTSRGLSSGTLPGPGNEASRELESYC

[4] = Table 1, relative to the native hormone of the indicated receptor
[5] = relative to the standard (Std.) EC50 of the same run
[6] = Table 4, relative to the native hormone

T1 sequence (P43220 24-463, species assumed): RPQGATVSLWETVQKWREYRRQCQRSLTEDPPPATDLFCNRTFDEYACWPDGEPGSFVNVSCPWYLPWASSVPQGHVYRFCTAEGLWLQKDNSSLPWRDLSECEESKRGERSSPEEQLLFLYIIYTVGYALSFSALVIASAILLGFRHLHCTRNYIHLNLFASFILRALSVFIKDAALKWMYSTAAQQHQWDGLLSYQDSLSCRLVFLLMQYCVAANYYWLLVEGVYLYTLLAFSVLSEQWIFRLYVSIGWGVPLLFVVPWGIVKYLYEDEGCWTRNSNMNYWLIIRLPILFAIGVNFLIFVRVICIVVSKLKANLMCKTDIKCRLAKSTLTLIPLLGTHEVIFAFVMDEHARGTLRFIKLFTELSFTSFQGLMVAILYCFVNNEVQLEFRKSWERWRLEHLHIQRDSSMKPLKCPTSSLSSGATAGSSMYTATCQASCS
T2 sequence (P47871 26-477): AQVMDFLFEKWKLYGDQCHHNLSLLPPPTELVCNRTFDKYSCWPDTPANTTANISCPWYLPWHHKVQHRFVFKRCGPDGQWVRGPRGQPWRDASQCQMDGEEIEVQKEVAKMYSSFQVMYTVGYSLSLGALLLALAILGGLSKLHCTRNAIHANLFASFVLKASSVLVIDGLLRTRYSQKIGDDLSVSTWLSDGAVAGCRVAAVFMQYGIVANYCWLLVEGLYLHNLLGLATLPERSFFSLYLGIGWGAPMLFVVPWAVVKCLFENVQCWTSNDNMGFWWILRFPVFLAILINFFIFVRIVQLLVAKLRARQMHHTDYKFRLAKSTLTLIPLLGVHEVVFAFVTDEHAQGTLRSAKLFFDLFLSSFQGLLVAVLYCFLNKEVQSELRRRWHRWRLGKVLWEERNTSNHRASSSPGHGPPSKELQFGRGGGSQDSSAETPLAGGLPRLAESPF

Compound | GLP-1 Receptor relative activity [1, 4] [%] | Glucagon Receptor relative activity [2, 4] [%] | GIP Receptor relative activity [3, 4] [%] | EC50 [1] [nM] | GLP-1 Receptor relative activity [1, 5] [%] | Glucagon Receptor relative activity [2, 5] [%] | EC50 [3] [nM] | GIP Receptor relative activity [3, 5] [%] | also measured
CC[C@H](C)[C@H](NC(=O)[C@H](Cc1ccccc1)NC(=O)[C@@H](NC(=O)CNC(=O)[C@H](CCC(N)=O)NC(=O)[C@H](C)NC(=O)[C@@H](N)Cc1ccc(O)cc1)[C@@H](C)O)C(=O)N[C@@H](CO)C(=O)N[C@@H](CC(=O)O)C(=O)N[C@@H](Cc1ccc(O)cc1)C(=O)N[C@@H](CO)C(=O)N[C@@H](CCCCN)C(=O)N[C@@H](Cc1ccc(O)cc1)C(=O)N[C@@H](CC(C)C)C(=O)N[C@@H](CC(=O)O)C(=O)N[C@H]1CCC(=O)NCCCC[C@@H](C(=O)N[C@@H](CCC(=O)O)C(=O)N[C@@H](Cc2ccccc2)C(=O)N[C@H](C(=O)N[C@@H](CC(N)=O)C(=O)N[C@@H](Cc2c[nH]c3ccccc23)C(=O)N[C@@H](CC(C)C)C(=O)N[C@@H](CC(C)C)C(=O)N[C@@H](C)C(=O)NCC(=O)NCC(=O)N2CCC[C@H]2C(=O)N[C@@H](CO)C(=O)N[C@@H](CO)C(=O)NCC(=O)N[C@@H](C)C(=O)N2CCC[C@H]2C(=O)N2CCC[C@H]2C(=O)N2CCC[C@H]2C(=O)N[C@@H](CO)C(N)=O)C(C)C)NC(=O)[C@H](C)NC(=O)[C@H](C)NC(=O)[C@H](CCC(N)=O)NC1=O [mt-145] (H-YAQGTFISDYSKYLDEQAAKEFVNWLLAGGPSSGAPPPS-NH2; lactam 16-20; N-terminus assumed) | 0.33 | 47.06 | 4.79 | – | – | – | – | – | –
CCCCCCCCCCCCCC(=O)NCCCC[C@H](NC(=O)[C@H](CC(=O)O)NC(=O)[C@H](CO)NC(=O)[C@@H](NC(=O)[C@H](Cc1ccccc1)NC(=O)[C@@H](NC(=O)CNC(=O)[C@H](CCC(=O)O)NC(=O)C(C)(C)NC(=O)[C@@H](N)Cc1ccc(O)cc1)[C@@H](C)O)[C@@H](C)O)C(=O)N[C@@H](CO)C(=O)N[C@H](C(=O)N[C@@H](Cc1ccc(O)cc1)C(=O)N[C@@H](CC(C)C)C(=O)N[C@@H](CC(=O)O)C(=O)N[C@@H](CCCCN)C(=O)N[C@@H](CCC(N)=O)C(=O)N[C@@H](C)C(=O)N[C@@H](C)C(=O)NC(C)(C)C(=O)N[C@@H](CCC(=O)O)C(=O)N[C@@H](Cc1ccccc1)C(=O)N[C@H](C(=O)N[C@@H](CC(N)=O)C(=O)N[C@@H](Cc1c[nH]c2ccccc12)C(=O)N[C@@H](CC(C)C)C(=O)N[C@@H](CC(C)C)C(=O)N[C@@H](C)C(=O)NCC(=O)NCC(=O)N1CCC[C@H]1C(=O)N[C@@H](CO)C(=O)N[C@@H](CO)C(=O)NCC(=O)N[C@@H](C)C(=O)N1CCC[C@H]1C(=O)N1CCC[C@H]1C(=O)N1CCC[C@H]1C(=O)N[C@@H](CO)C(N)=O)C(C)C)[C@@H](C)CC [mt-269] (H-Y[Aib]EGTFTSDK(Myristoyl)SIYLDKQAA[Aib]EFVNWLLAGGPSSGAPPPS-NH2; N-terminus assumed) | – | – | – | 0.0136 | 144.85 | 0.11 | 0.0057 | 140.35 | EC50 [2]: 183 nM
CC[C@H](C)[C@H](NC(=O)[C@H](Cc1ccccc1)NC(=O)[C@H](CCC(=O)O)NC(=O)[C@@H]1CCCCNC(=O)CC[C@H](NC(=O)[C@H](CC(=O)O)NC(=O)[C@H](CC(C)C)NC(=O)[C@H](Cc2ccc(O)cc2)NC(=O)[C@H](CCCCN)NC(=O)[C@H](CO)NC(=O)[C@H](Cc2ccc(O)cc2)NC(=O)[C@H](CC(=O)O)NC(=O)[C@H](CO)NC(=O)[C@@H](NC(=O)[C@H](Cc2ccccc2)NC(=O)[C@@H](NC(=O)CNC(=O)[C@H](CCC(N)=O)NC(=O)[C@H](CO)NC(=O)[C@@H](N)Cc2ccc(O)cc2)[C@@H](C)O)[C@@H](C)O)C(=O)N[C@@H](CCC(N)=O)C(=O)N[C@@H](C)C(=O)N[C@@H](C)C(=O)N1)C(=O)N[C@@H](C)C(=O)N[C@@H](Cc1c[nH]c2ccccc12)C(=O)N[C@@H](CC(C)C)C(=O)N[C@@H](CCSC)C(=O)N[C@@H](CC(N)=O)C(=O)NCC(=O)NCC(=O)N1CCC[C@H]1C(=O)N[C@@H](CO)C(=O)N[C@@H](CO)C(=O)NCC(=O)N[C@@H](C)C(=O)N1CCC[C@H]1C(=O)N1CCC[C@H]1C(=O)N1CCC[C@H]1C(=O)N[C@@H](CO)C(N)=O [mt-120] (H-YSQGTFTSDYSKYLDEQAAKEFIAWLMNGGPSSGAPPPS-NH2; lactam 16-20; N-terminus assumed) | 13.45 | 259.46 | 1.81 | – | – | – | – | – | –
CC[C@H](C)[C@H](NC(=O)[C@H](CO)NC(=O)[C@H](Cc1ccc(O)cc1)NC(=O)[C@H](CC(=O)O)NC(=O)[C@H](CO)NC(=O)[C@@H](NC(=O)[C@H](Cc1ccccc1)NC(=O)[C@@H](NC(=O)CNC(=O)[C@H](CCC(N)=O)NC(=O)[C@H](CO)NC(=O)[C@@H](N)Cc1ccc(O)cc1)[C@@H](C)O)[C@@H](C)O)C(=O)N[C@@H](Cc1ccc(O)cc1)C(=O)N[C@@H](CC(C)C)C(=O)N[C@@H](CC(=O)O)C(=O)N[C@H]1CCC(=O)NCCCC[C@@H](C(=O)N[C@@H](CC(=O)O)C(=O)N[C@@H](Cc2ccccc2)C(=O)N[C@H](C(=O)N[C@@H](CC(N)=O)C(=O)N[C@@H](Cc2c[nH]c3ccccc23)C(=O)N[C@@H](CC(C)C)C(=O)N[C@@H](CC(C)C)C(=O)N[C@@H](C)C(=O)N[C@@H](CCC(N)=O)C(N)=O)C(C)C)NC(=O)[C@H](CCC(N)=O)NC(=O)[C@H](Cc2c[nH]cn2)NC(=O)[C@H]([C@@H](C)CC)NC1=O [mt-110] (H-YSQGTFTSDYSIYLDEIHQKDFVNWLLAQ-NH2; lactam 16-20; N-terminus assumed) | 1.49 | 23.26 | 9.62 | – | – | – | – | – | –
CC[C@H](C)[C@H](NC(=O)[C@H](CO)NC(=O)[C@H](CCCCN)NC(=O)[C@H](CC(=O)O)NC(=O)[C@H](CO)NC(=O)[C@@H](NC(=O)[C@H](Cc1ccccc1)NC(=O)[C@@H](NC(=O)CNC(=O)[C@H](CCC(=O)O)NC(=O)C(C)(C)NC(=O)[C@@H](N)Cc1ccc(O)cc1)[C@@H](C)O)[C@@H](C)O)C(=O)N[C@@H](Cc1ccc(O)cc1)C(=O)N[C@@H](CC(C)C)C(=O)N[C@@H](CC(=O)O)C(=O)N[C@@H](CCCCN)C(=O)N[C@@H](CCC(N)=O)C(=O)N[C@@H](C)C(=O)N[C@@H](C)C(=O)NC(C)(C)C(=O)N[C@@H](CCC(=O)O)C(=O)N[C@@H](Cc1ccccc1)C(=O)N[C@H](C(=O)N[C@@H](CC(N)=O)C(=O)N[C@@H](Cc1c[nH]c2ccccc12)C(=O)N[C@@H](CC(C)C)C(=O)N[C@@H](CC(C)C)C(=O)N[C@@H](C)C(=O)NCC(=O)NCC(=O)N1CCC[C@H]1C(=O)N[C@@H](CO)C(=O)N[C@@H](CO)C(=O)NCC(=O)N[C@@H](C)C(=O)N1CCC[C@H]1C(=O)N1CCC[C@H]1C(=O)N1CCC[C@H]1C(=O)N[C@@H](CO)C(N)=O)C(C)C [mt-272] (H-Y[Aib]EGTFTSDKSIYLDKQAA[Aib]EFVNWLLAGGPSSGAPPPS-NH2; N-terminus assumed) | – | – | – | 1.23 | 1.60 | 0.02 | 0.0241 | 33.20 | EC50 [2]: 1060 nM
mt-227: pegylated monomer with lactam bridge between Glu16 and Lys20, PEG attached via dipeptide spacer (Y[Aib]QGTFTSDYSIYLDEQAAKEFVNWLLAGGPSSGAPPPSK([Arg-Ac‑Cys(PEG 40 kDa)])-NH2; lactam 16-20) | – | – | – | – | – | – | – | – | GLP-1 Receptor relative activity [1, 6]: 36.25%; Glucagon Receptor relative activity [2, 6]: 1.27%; GIP Receptor relative activity [3, 6]: 1.29%
Y[Aib]EGTFISDYSIAMDKIHQQDFVNWLLAQKGKKNWLKHNITQ-NH2 [mt-100] | 0.01 | 0.01 | 306.25 | – | – | – | – | – | –
CC[C@H](C)[C@H](NC(=O)[C@H](CO)NC(=O)[C@H](Cc1ccc(O)cc1)NC(=O)[C@H](CC(=O)O)NC(=O)[C@H](CO)NC(=O)[C@@H](NC(=O)[C@H](Cc1ccccc1)NC(=O)[C@@H](NC(=O)CNC(=O)[C@H](CCC(=O)O)NC(=O)C(C)(C)NC(=O)[C@@H](N)Cc1ccc(O)cc1)[C@@H](C)O)[C@@H](C)O)C(=O)N[C@@H](Cc1ccc(O)cc1)C(=O)N[C@@H](CC(C)C)C(=O)N[C@@H](CC(=O)O)C(=O)N[C@@H](CCCCN)C(=O)N[C@@H](CCC(N)=O)C(=O)N[C@@H](C)C(=O)N[C@@H](C)C(=O)NC(C)(C)C(=O)N[C@@H](CCC(=O)O)C(=O)N[C@@H](Cc1ccccc1)C(=O)N[C@H](C(=O)N[C@@H](CC(N)=O)C(=O)N[C@@H](Cc1c[nH]c2ccccc12)C(=O)N[C@@H](CC(C)C)C(=O)N[C@@H](CC(C)C)C(=O)N[C@@H](C)C(=O)NCC(=O)NCC(=O)N1CCC[C@H]1C(=O)N[C@@H](CO)C(=O)N[C@@H](CO)C(=O)NCC(=O)N[C@@H](C)C(=O)N1CCC[C@H]1C(=O)N1CCC[C@H]1C(=O)N1CCC[C@H]1C(=O)N[C@@H](CO)C(=O)N[C@@H](CS)C(N)=O)C(C)C [mt-256] | – | – | – | 0.0124 | 95.97 | 0.12 | 0.0034 | 282.35 | –
